Results published in ChEMBL document CHEMBL5390267, “Selective Activation of a TRPC6 Ion Channel Over TRPC3 by Metalated Type-B Polycyclic Polyprenylated Acylphloroglucinols” (J Med Chem, 2023).
In brackets after ≈: the same amount, converted by molar mass. Activity calls are given as the source filed them. The calls are words filed in the database; no cut-off is given here.

Legend:
PC12 = experiment: Agonist activity at TRPC6 channel in rat PC12 cells assessed as induction of intracellular calcium level at 10 uM by FLIPR calcium 6 assay; format: cell-based; conditions: time 2.0 hrs
[1] = Kinetic solubility of compound in 1% DMSO/PBS incubated for 5 mins under shaking condition by turbidimetric method; format: physicochemical; conditions: read-out: Kinetic_solubility
[2] = Metabolic stability in mouse liver microsomes assessed as half life at 1 uM incubated for 120 mins in presence of NADPH by HPLC-MS/MS analysis; format: ADME, Microsome
[3] = Metabolic stability in mouse liver microsomes assessed as intrinsic clearance at 1 uM incubated for 120 mins in presence of NADPH by HPLC-MS/MS analysis; format: ADME, Microsome; conditions: read-out: CLH
[4] = Stability in CD-1 mouse plasma assessed as half life at 1 uM incubated for 15 mins by HPLC-MS/MS analysis; format: ADME, cell-free
[5] = Photostability of compound assessed as compound decomposition at 5 mg incubated for 1 week under natural sun light-irradiation and air; format: physicochemical; conditions: 168 h, time 1 weeks
[6] = biological target: T1, Short transient receptor potential channel 6 (Homo sapiens) (UniProt Q9Y210); experiment: Agonist activity at […] TRPC6 channel in HEK293 cells assessed as intracellular calcium influx stimulation at 10 uM by Fura-2 AM staining based calcium influx assay; format: cell-based; conditions: filed as agonist
T1 sequence (whole entry): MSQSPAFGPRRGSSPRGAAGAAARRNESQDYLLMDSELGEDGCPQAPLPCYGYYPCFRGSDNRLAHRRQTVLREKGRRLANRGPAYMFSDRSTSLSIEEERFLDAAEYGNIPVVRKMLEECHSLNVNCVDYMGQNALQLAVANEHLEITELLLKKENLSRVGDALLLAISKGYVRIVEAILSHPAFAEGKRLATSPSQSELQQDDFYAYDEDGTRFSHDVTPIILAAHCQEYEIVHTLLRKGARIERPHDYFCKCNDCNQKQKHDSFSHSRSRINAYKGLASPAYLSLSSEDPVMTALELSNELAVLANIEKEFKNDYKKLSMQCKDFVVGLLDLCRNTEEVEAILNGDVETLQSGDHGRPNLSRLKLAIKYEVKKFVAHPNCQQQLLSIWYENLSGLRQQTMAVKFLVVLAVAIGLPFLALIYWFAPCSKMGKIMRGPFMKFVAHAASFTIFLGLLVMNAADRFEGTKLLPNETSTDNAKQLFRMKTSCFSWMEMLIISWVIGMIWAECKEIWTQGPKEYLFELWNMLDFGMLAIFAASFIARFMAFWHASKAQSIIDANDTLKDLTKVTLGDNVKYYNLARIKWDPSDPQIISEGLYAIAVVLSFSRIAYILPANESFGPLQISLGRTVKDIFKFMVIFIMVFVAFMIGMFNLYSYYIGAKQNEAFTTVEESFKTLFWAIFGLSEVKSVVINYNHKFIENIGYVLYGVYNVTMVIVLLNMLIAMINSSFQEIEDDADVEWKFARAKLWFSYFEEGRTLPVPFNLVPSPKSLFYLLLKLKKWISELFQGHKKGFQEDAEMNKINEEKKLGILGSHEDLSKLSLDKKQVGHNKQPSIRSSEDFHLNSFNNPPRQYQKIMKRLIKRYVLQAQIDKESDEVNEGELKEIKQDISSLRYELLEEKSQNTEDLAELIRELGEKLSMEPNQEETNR

[7] = biological target: T2, Short transient receptor potential channel 3 (Homo sapiens) (UniProt Q13507); experiment: Agonist activity at […] TRPC3 channel in HEK293 cells assessed as intracellular calcium influx stimulation at 10 uM by Fura-2 AM staining based calcium influx assay; format: cell-based; conditions: filed as agonist
T2 sequence (whole entry): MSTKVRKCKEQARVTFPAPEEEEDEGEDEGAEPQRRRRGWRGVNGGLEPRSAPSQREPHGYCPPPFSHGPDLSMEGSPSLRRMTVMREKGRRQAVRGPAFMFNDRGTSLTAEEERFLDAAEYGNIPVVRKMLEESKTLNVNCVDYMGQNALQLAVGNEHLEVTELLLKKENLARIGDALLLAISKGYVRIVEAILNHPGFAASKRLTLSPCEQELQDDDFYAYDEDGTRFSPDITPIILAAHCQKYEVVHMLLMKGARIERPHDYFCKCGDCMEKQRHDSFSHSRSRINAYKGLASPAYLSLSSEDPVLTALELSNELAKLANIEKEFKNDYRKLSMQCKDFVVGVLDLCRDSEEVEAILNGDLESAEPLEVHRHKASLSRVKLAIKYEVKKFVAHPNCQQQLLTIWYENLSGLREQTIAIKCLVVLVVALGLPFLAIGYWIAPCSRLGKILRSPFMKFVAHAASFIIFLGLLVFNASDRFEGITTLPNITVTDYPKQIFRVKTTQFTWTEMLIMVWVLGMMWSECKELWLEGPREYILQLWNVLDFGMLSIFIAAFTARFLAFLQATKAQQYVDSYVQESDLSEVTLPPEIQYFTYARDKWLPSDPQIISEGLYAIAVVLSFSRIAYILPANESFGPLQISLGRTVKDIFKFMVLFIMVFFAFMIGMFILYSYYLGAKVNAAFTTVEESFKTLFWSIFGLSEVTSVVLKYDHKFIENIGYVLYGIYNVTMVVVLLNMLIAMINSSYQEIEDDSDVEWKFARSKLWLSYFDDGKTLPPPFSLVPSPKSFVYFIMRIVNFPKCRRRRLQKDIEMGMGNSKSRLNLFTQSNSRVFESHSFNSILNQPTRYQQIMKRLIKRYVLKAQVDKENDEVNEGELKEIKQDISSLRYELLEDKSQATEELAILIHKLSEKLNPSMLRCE

[8] = biological target: T1, Short transient receptor potential channel 6 (Homo sapiens); experiment: Agonist activity at TRPC6 channel in HEK293 cells assessed as intracellular calcium influx stimulation at 1 to 10 uM by Fura-2 AM staining based calcium influx assay; format: cell-based; conditions: filed as agonist, dose 1-10 µM

For `CC(=O)C1=C(O)[C@@]2(CC=C(C)C)C[C@H](CC=C(C)C)C(C)(C)[C@@](CC=C(C)C)(C1=O)C2=O`, which Activity (PC12) is on record?
The Activity was “inactive”.

Which results are given for `C=CC[C@@]12C[C@H](CC=C(C)C)C(C)(C)[C@@](CC=C)(C(=O)C(C(C)=O)=C1[O-])C2=O.[Na+]`?
solubility kinetic at 5 min [1]: > 200 µM; half-life at 1 µM [2]: 0.525 h; microsomal CLint at 1 µM [3]: 44.7 µL/min/mg; half-life at 1 µM [4]: 2.57 h; Stability [5]: Stable

For `C=CC[C@@]12C[C@H](CC=C(C)C)C(C)(C)[C@@](CC=C)(C(=O)C(C(C)=O)=C1O)C2=O` [listing 1 of 2 here], which solubility kinetic at 5 min [1] is on record?
The solubility kinetic at 5 min was 49.1 µM (≈ 18.9 µg/mL).

Which results are given for `CC(C)=CCC[C@]1(C)[C@@H](CC=C(C)C)C[C@]2(CC=C(C)C)C(=O)C(CC=C(C)C)=C(O)[C@@]1(C(=O)C(C)C)C2=O`?
Activity (PC12; filed as agonist): Active; Activity [6]: Active

For `CC(C)=CC[C@H]1C[C@@]2(CC=C(C)C)C(=O)[C@](CC=C(C)C)(C(=O)C(C(=O)c3ccccc3)=C2O)C1(C)C`, which Activity (PC12) is on record?
Its Activity is “inactive”.

What does the source list for `CCCCCCCC/C=C\CCCCCCCC(=O)OC[C@H](CO)OC(C)=O`?
Activity [7]: Active; Activity [6]: Active

Which results are given for `C=CC[C@@]12C[C@H](CC=C(C)C)C(C)(C)[C@@](CC=C)(C(=O)C(C(C)=O)=C1O)C2=O` [listing 2 of 2 here]?
Activity (PC12; filed as agonist): Active; Activity [8]: Active; Activity [6]: Active
